Test results from ChEMBL document CHEMBL1201862, “PubChem BioAssay data set” (2004).
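96-well plates; 48 h exposure; 5 concentrations. Endpoints by linear interpolation between flanking doses. Not reached: highest tested concentration assigned. GI50 is the concentration that inhibits growth by half.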 Calls of active or inactive are those of the source. Cut-off read from the data, not from the text of the source: active = GI50 up to about 1.1 µM and inactive = higher.

What was measured:
Assay in all cases: DTP human tumour cell line panel, 48 h
[1] = tested on: SF-539
[2] = tested on: RXF 393
[3] = tested on: OVCAR-3
[4] = tested on: IGROV-1
[5] = tested on: SR
[6] = tested on: NCI-H23
[7] = tested on: UACC-257
[8] = tested on: SNB-75
[9] = tested on: MDA-MB-435
[10] = tested on: MDA-N
[11] = tested on: HL-60
[12] = tested on: MCF7
[13] = tested on: UO-31
[14] = tested on: MOLT-4
[15] = tested on: RPMI-8226
[16] = tested on: NCI/ADR-RES
[17] = tested on: Hs-578T
[18] = tested on: UACC-62
[19] = tested on: SK-MEL-2
[20] = tested on: NCI-H226
[21] = tested on: A498
[22] = tested on: HT-29
[23] = tested on: SF-268
[24] = tested on: K562
[25] = tested on: SK-OV-3
[26] = tested on: ACHN
[27] = tested on: DU-145
[28] = tested on: SK-MEL-28
[29] = tested on: OVCAR-8
[30] = tested on: PC-3
[31] = tested on: T47D
[32] = tested on: TK-10
[33] = tested on: SW-620
[34] = tested on: SF-295
[35] = tested on: HCC 2998
[36] = tested on: NCI-H522
[37] = tested on: 786-0
[38] = tested on: NCI-H460
[39] = tested on: LOX IMVI
[40] = tested on: OVCAR-4
[41] = tested on: HCT-116
[42] = tested on: CAKI-1
[43] = tested on: OVCAR-5
[44] = tested on: KM12
[45] = tested on: SNB-19
[46] = tested on: HOP-62
[47] = tested on: SK-MEL-5
[48] = tested on: SN12C
[49] = tested on: HCT-15
[50] = tested on: EKVX
[51] = tested on: U-251
[52] = tested on: MDA-MB-231
[53] = tested on: A549
[54] = tested on: M14
[55] = tested on: CCRF-CEM
[56] = tested on: BT-549
[57] = tested on: HOP-92
[58] = tested on: COLO 205
[59] = tested on: Malme-3M
[60] = tested on: M19-MEL
[61] = tested on: DLD-1
[62] = tested on: LXFL 529
[63] = tested on: DMS-114
[64] = tested on: SNB-78
[65] = tested on: DMS-273

Nc1nc(OCC2CCCCC2)c2nc[nH]c2n1 was tested, and the GI50 [1] was 11.5 µM (inactive), the GI50 [2] was 9.51 µM (inactive) and the GI50 [3] was 9.25 µM (inactive). For the same compound, the GI50 [4] was 5 µM (inactive), the GI50 [5] was 6.85 µM (inactive) and the GI50 [6] was 17.7 µM (inactive). The GI50 [7] was 17.3 µM (inactive), the GI50 [8] was 16.1 µM (inactive) and the GI50 [9] was 13.7 µM (inactive). The GI50 [10] was 13.1 µM (inactive), the GI50 [11] was 19.1 µM (inactive) and the GI50 [12] was 0.957 µM (active). The GI50 [13] was 7.18 µM (inactive), the GI50 [14] was 8.47 µM (inactive) and the GI50 [15] was 11.1 µM (inactive). For the same compound, the GI50 [16] was 28.6 µM (inactive), the GI50 [17] was 8.39 µM (inactive) and the GI50 [18] was 12.6 µM (inactive). For the same compound, the GI50 [19] was 4.5 µM (inactive), the GI50 [20] was 9.59 µM (inactive) and the GI50 [21] was 13.7 µM (inactive). For the same compound, the GI50 [22] was 12.3 µM (inactive), the GI50 [23] was 11.2 µM (inactive) and the GI50 [24] was 29.1 µM (inactive). For the same compound, the GI50 [25] was 14.9 µM (inactive), the GI50 [26] was 1.3 µM (inactive) and the GI50 [27] was 9.77 µM (inactive). The GI50 [28] was 26.2 µM (inactive), the GI50 [29] was 16.5 µM (inactive) and the GI50 [30] was 10.8 µM (inactive). The GI50 [31] was 6.98 µM (inactive), the GI50 [32] was 7.35 µM (inactive) and the GI50 [33] was 23.3 µM (inactive). For the same compound, the GI50 [34] was 17.7 µM (inactive), the GI50 [35] was 17.5 µM (inactive) and the GI50 [36] was 9.1 µM (inactive). The GI50 [37] was 17 µM (inactive), the GI50 [38] was 8.38 µM (inactive) and the GI50 [39] was 8.75 µM (inactive). The GI50 [40] was 13.2 µM (inactive), the GI50 [41] was 11.4 µM (inactive) and the GI50 [42] was 7.24 µM (inactive). The GI50 [43] was 13.6 µM (inactive), the GI50 [44] was 15.7 µM (inactive) and the GI50 [45] was 25.2 µM (inactive). The GI50 [46] was 13.4 µM (inactive), the GI50 [47] was 15.2 µM (inactive) and the GI50 [48] was 10.2 µM (inactive). The GI50 [49] was 8.05 µM, the GI50 [50] was 19.4 µM (inactive) and the GI50 [51] was 16.8 µM (inactive). The GI50 [52] was 25 µM (inactive), the GI50 [53] was 15.5 µM (inactive) and the GI50 [54] was 8.73 µM (inactive). For the same compound, the GI50 [55] was 11.2 µM (inactive), the GI50 [56] was 13.9 µM (inactive) and the GI50 [57] was 10.3 µM (inactive). The GI50 [58] was 13 µM (inactive) and the GI50 [59] was 5.73 µM (inactive).

O=C1c2ccccc2C(=O)c2c(O)ccc(O)c21 [QUINIZARIN] was tested, and the GI50 [1] was > 100 µM (inactive), the GI50 [2] was > 100 µM (inactive) and the GI50 [3] was 29.2 µM (inactive). The GI50 [4] was > 100 µM (inactive), the GI50 [6] was > 100 µM (inactive) and the GI50 [7] was > 100 µM (inactive). The GI50 [8] was > 100 µM (inactive), the GI50 [11] was > 100 µM (inactive) and the GI50 [13] was 59 µM (inactive). The GI50 [14] was 52 µM (inactive), the GI50 [15] was 91 µM (inactive) and the GI50 [18] was > 100 µM (inactive). The GI50 [19] was 79.8 µM (inactive), the GI50 [21] was > 100 µM (inactive) and the GI50 [22] was 45.3 µM (inactive). For the same compound, the GI50 [23] was > 100 µM (inactive), the GI50 [24] was > 100 µM (inactive) and the GI50 [25] was > 100 µM (inactive). The GI50 [26] was > 100 µM (inactive), the GI50 [28] was > 100 µM (inactive) and the GI50 [29] was > 100 µM (inactive). The GI50 [60] was 21.8 µM (inactive), the GI50 [32] was > 100 µM (inactive) and the GI50 [33] was 93.8 µM (inactive). For the same compound, the GI50 [34] was > 100 µM (inactive), the GI50 [35] was 81.1 µM (inactive) and the GI50 [36] was > 100 µM (inactive). For the same compound, the GI50 [37] was > 100 µM (inactive), the GI50 [38] was 40.8 µM (inactive) and the GI50 [39] was > 100 µM (inactive). For the same compound, the GI50 [40] was > 100 µM (inactive), the GI50 [41] was > 100 µM (inactive) and the GI50 [42] was > 100 µM (inactive). For the same compound, the GI50 [61] was 61.9 µM (inactive), the GI50 [43] was > 100 µM (inactive) and the GI50 [44] was 60.5 µM (inactive). The GI50 [45] was > 100 µM (inactive), the GI50 [46] was > 100 µM (inactive) and the GI50 [62] was > 100 µM (inactive). For the same compound, the GI50 [47] was 63.1 µM (inactive), the GI50 [63] was > 100 µM (inactive) and the GI50 [48] was > 100 µM (inactive). For the same compound, the GI50 [49] was > 100 µM, the GI50 [50] was 58.7 µM (inactive) and the GI50 [64] was > 100 µM (inactive). The GI50 [51] was > 100 µM (inactive), the GI50 [65] was > 100 µM (inactive) and the GI50 [53] was 81.3 µM (inactive). The GI50 [54] was > 100 µM (inactive), the GI50 [55] was > 100 µM (inactive) and the GI50 [57] was > 100 µM (inactive). The GI50 [58] was > 100 µM (inactive) and the GI50 [59] was > 100 µM (inactive).
